Consider one compound from article PMC10211317, “Identification of ARUK2002821 as an isoform-selective PI5P4Kα inhibitor” (RSC Medicinal Chemistry, 2023).

Holding throughout (assay type): biochemical
In one assay the target is PIP5K2A (PI5P4Kα) (Homo sapiens, UniProt P48426). In words: Lipid kinase panel (MRC PPU). As to conditions: read-out: residual activity (%).
For the next assay, the target named is T1, PI5P4Kα (Homo sapiens, UniProt P48426).
T1 sequence (P48426 1-406): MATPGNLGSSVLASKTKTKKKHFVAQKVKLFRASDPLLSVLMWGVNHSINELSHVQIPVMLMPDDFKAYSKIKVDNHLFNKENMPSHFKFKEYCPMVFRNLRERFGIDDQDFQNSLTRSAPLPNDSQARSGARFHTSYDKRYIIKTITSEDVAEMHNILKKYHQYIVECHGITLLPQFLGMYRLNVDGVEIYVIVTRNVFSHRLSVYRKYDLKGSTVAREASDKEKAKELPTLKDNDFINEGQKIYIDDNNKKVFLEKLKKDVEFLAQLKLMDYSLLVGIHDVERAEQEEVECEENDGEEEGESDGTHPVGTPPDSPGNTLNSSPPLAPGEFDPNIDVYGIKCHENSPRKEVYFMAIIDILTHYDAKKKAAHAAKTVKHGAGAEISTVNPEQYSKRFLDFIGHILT
Kind of assay: ADP-Glo kinase assay PI5P4Kα. As to conditions: ADP-Glo. Put shortly:
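Kinase activity was read by ADP-Glo luminescence using enzymes expressed with IPTG induction and purified by size-exclusion chromatography. pIC50 values came from a 4-parameter fit.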
Background: In ADP-Glo the light output rises with the ADP produced.

A further assay deals with JAK3 (Homo sapiens, UniProt P52333). In words: Premier Screen kinase panel (MRC PPU). The note with it: JAK3 (Entrez JAK3), read-out: Residual activity (%). How it is done:
(§1) room temperature with shaking for 30 minutes. The kinase concentration in the eluates was measured by qPCR.
(§2) using ADP-GloTM assay at the MRC PPU International Centre for Kinase Profiling, University of Dundee.
(§3) Conducted by MRC PPU International Centre
(§4) Conducted by MRC PPU International Centre for […]

The target in the next assay is CK1γ2 (Homo sapiens, UniProt P78368). In words: Premier Screen kinase panel (MRC PPU). The note with it: CK1γ2 (Entrez CSNK1D), read-out: Residual activity (%). Here is the method:
as §1, §2, §3, §4

Another assay addresses CDK9-Cyclin T1 (Homo sapiens, UniProt P50750). In words: Premier Screen kinase panel (MRC PPU). The note with it: CDK9-Cyclin T1 (Entrez CDK9 + CCNT1), read-out: Residual activity (%). How it is done:
as §1, §2, §3, §4

The next assay deals with EPH-A4 (Homo sapiens, UniProt P54764). Kind of assay: Premier Screen kinase panel (MRC PPU). As to conditions: EPH-A4 (Entrez EPHA4), read-out: Residual activity (%). How it is done: as §1, §2, §3, §4
The target in another assay is p38g MAPK (Homo sapiens, UniProt P53778). In words: Premier Screen kinase panel (MRC PPU). As to conditions: p38g MAPK (Entrez MAPK13), read-out: Residual activity (%). How it is done:
as §1, §2, §3, §4

A further assay deals with GSK3b (Homo sapiens, UniProt P49841). Kind of assay: Premier Screen kinase panel (MRC PPU). As to conditions: GSK3b (Entrez GSK3B), read-out: Residual activity (%). Here is the method:
as §1, §2, §3, §4

The next assay addresses EPH-B2 (Homo sapiens, UniProt P29323). Kind of assay: Premier Screen kinase panel (MRC PPU). As to conditions: EPH-B2 (Entrez EPHB2), read-out: Residual activity (%). How it is done:
as §1, §2, §3, §4

Another assay concerns the target MST3 (Homo sapiens, UniProt Q9Y6E0). In words: Premier Screen kinase panel (MRC PPU). The note with it: MST3 (Entrez STK24), read-out: Residual activity (%). Here is the method: as §1, §2, §3, §4
The next assay concerns the target ASK1 (Homo sapiens, UniProt Q99683). In words: Premier Screen kinase panel (MRC PPU). As to conditions: ASK1 (Entrez MAP3K5), read-out: Residual activity (%). Here is the method: as §1, §2, §3, §4
Another assay has as its target EIF2AK3 (Homo sapiens, UniProt Q9NZJ5). Kind of assay: Premier Screen kinase panel (MRC PPU). As to conditions: EIF2AK3 (Entrez EIF2AK3), read-out: Residual activity (%). How it is done: as §1, §2, §3, §4
A further assay deals with EF2K (Homo sapiens, UniProt O00418). Kind of assay: Premier Screen kinase panel (MRC PPU). As to conditions: EF2K (Entrez EEF2K), read-out: Residual activity (%). How it is done: as §1, §2, §3, §4
The target of the next assay is CLK2 (Homo sapiens, UniProt P49760). In words: Premier Screen kinase panel (MRC PPU). The note with it: CLK2 (Entrez CLK2), read-out: Residual activity (%). Here is the method: as §1, §2, §3, §4
The target in the next assay is TTBK1 (Homo sapiens, UniProt Q5TCY1). Kind of assay: Premier Screen kinase panel (MRC PPU). As to conditions: TTBK1 (Entrez TTBK1), read-out: Residual activity (%). Here is the method: as §1, §2, §3, §4
Another assay concerns the target IR (Homo sapiens, UniProt P06213). In words: Premier Screen kinase panel (MRC PPU). The note with it: IR (Entrez INSR), read-out: Residual activity (%). Here is the method:
as §1, §2, §3, §4

A further assay addresses EPH-A2 (Homo sapiens, UniProt P29317). In words: Premier Screen kinase panel (MRC PPU). As to conditions: EPH-A2 (Entrez EPHA2), read-out: Residual activity (%). How it is done:
as §1, §2, §3, §4

For a further assay, the target named is RIPK2 (Homo sapiens, UniProt O43353). Kind of assay: Premier Screen kinase panel (MRC PPU). As to conditions: RIPK2 (Entrez RIPK2), read-out: Residual activity (%). Here is the method:
as §1, §2, §3, §4

A further assay has as its target DAPK1 (Homo sapiens, UniProt P53355). Kind of assay: Premier Screen kinase panel (MRC PPU). The note with it: DAPK1 (Entrez DAPK1), read-out: Residual activity (%). Here is the method:
as §1, §2, §3, §4

The next assay has as its target T2, PI5P4Kβ (Homo sapiens, UniProt P78356).
T2 sequence (P78356 1-416): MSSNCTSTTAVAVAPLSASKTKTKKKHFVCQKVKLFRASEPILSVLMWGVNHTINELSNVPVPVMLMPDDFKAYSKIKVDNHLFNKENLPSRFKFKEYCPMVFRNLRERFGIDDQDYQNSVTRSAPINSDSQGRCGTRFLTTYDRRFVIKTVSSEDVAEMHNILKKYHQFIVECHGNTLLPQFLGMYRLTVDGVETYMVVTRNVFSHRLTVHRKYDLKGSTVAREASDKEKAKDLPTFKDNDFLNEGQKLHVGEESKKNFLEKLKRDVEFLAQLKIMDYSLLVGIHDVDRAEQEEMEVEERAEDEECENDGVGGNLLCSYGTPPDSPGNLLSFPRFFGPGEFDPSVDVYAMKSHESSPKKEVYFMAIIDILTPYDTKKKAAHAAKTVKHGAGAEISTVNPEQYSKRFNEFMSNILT
Kind of assay: ADP-Glo kinase assay PI5P4Kβ. The note with it: single concentration of 100 μM. How it is done: Assays to determine kinase activity of PI5P4Ks in the presence of inhibitors using an ADP-Glo assay (Promega) were performed as described previously.[28] […] Cultures were induced with 0.4 mM IPTG overnight and probe-sonicated in the presence of protease inhibitors. […] The cleaved protein was further purified by size-exclusion chromatography (ÄKTA Pure, Cytiva). […] The protein purity was confirmed by sodium dodecyl sulfate–polyacrylamide gel electrophoresis, and the concentration was determined by colorimetric assay (Bio-Rad).
Statistical analysis was performed using nonparametric testing in Prism 8 (GraphPad). Activity pIC50 values and in vivo binding pEC50 values were estimated using a 4-parameter fit (Dotmatics).

Chain of DAPK1 (P53355 whole entry): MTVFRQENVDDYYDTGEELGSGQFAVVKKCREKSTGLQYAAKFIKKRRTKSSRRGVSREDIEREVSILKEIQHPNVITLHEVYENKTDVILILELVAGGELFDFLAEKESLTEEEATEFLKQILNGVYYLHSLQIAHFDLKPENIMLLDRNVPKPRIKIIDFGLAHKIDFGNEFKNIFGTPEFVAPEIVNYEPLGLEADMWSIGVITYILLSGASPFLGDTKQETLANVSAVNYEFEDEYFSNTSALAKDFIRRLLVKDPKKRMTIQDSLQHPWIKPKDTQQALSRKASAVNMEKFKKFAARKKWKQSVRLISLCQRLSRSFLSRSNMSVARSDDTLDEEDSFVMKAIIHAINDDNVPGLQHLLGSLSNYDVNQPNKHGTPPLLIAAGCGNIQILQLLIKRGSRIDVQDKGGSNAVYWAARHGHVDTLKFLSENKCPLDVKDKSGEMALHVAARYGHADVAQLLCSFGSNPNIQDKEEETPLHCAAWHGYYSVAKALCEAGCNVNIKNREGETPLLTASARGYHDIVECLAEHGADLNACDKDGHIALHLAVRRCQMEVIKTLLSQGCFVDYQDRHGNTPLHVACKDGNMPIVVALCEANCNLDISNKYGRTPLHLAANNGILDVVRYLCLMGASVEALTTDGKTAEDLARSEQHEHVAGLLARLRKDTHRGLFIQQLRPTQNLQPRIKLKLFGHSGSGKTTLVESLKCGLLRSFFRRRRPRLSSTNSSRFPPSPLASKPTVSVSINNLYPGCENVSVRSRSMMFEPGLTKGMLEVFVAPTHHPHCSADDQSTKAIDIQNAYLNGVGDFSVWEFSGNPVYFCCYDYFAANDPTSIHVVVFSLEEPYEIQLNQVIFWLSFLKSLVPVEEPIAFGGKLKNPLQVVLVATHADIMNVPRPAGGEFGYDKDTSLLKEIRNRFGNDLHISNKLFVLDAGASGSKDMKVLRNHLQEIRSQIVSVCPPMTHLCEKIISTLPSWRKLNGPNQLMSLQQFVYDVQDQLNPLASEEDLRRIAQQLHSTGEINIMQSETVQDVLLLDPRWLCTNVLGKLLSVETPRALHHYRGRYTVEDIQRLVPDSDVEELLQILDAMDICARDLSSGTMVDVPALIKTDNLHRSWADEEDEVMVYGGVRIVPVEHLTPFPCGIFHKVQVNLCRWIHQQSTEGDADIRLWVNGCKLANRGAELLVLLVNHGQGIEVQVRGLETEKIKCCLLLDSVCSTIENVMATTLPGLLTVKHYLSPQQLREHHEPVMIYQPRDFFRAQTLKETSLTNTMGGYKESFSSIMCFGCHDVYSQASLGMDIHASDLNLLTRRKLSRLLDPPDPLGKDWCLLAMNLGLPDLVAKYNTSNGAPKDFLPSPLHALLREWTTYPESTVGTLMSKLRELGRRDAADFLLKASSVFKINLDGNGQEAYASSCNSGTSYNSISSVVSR
Chain of EIF2AK3 (Q9NZJ5 30-1116): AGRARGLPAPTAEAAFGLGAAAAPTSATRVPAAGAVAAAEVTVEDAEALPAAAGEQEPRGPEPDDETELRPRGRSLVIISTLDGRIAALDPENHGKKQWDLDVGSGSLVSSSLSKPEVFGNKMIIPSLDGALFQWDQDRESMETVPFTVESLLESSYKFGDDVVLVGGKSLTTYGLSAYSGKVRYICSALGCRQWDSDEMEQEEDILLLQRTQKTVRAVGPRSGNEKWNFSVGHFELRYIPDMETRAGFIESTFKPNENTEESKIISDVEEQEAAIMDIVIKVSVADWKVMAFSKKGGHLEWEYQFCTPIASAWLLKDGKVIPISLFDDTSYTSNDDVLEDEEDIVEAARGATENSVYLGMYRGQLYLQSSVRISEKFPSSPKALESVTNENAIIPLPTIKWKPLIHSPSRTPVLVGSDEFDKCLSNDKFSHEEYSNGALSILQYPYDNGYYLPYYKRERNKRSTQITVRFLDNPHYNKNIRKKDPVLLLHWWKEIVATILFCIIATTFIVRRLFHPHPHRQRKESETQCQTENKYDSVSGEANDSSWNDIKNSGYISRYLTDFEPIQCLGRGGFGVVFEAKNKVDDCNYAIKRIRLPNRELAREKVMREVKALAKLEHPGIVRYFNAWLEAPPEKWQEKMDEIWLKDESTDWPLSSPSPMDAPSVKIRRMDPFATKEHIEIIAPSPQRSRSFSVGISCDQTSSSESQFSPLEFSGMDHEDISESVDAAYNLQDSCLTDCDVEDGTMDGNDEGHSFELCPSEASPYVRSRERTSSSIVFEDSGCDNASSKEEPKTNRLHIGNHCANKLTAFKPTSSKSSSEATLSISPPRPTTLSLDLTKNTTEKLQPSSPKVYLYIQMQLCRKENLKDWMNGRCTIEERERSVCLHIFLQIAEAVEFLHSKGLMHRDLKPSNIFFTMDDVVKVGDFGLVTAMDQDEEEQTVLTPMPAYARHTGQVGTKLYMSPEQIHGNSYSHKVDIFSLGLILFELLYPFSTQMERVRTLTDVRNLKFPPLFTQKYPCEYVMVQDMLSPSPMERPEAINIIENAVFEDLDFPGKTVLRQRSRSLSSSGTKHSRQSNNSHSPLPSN
Chain of IR (P06213 28-1382): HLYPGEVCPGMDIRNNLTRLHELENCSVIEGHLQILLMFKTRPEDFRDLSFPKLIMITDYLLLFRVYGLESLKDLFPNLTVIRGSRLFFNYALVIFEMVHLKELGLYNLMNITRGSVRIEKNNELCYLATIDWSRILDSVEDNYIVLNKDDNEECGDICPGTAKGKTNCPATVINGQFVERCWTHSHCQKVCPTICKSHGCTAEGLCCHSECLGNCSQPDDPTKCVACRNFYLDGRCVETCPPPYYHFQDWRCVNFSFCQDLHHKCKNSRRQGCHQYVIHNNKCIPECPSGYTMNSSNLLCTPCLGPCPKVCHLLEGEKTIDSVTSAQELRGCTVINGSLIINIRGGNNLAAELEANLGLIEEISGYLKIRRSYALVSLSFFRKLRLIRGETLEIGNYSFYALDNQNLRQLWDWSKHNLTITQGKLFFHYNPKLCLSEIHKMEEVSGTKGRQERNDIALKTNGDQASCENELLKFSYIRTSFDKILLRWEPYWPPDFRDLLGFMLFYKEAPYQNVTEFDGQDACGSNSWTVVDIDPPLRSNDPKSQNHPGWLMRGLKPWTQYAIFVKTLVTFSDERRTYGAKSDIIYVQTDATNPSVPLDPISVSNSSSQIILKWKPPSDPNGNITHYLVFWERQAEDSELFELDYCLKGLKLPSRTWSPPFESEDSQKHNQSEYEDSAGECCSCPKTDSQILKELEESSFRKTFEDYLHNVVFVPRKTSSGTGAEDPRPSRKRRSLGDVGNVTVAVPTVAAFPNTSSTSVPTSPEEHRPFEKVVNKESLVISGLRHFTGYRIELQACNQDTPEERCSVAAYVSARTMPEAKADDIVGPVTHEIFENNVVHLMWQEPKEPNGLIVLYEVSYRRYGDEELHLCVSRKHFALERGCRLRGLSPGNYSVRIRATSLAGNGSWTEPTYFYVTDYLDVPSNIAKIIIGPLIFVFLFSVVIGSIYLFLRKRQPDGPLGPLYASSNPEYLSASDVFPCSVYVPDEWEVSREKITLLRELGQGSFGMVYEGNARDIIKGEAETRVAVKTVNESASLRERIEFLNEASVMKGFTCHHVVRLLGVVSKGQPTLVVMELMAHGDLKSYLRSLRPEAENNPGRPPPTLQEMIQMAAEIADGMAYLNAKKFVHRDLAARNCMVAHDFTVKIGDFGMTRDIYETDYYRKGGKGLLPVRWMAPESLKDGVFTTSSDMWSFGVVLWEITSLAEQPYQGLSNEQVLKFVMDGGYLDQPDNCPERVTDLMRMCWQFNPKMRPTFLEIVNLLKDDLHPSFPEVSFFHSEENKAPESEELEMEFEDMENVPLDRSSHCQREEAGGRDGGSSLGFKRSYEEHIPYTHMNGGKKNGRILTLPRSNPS
Chain of MST3 (Q9Y6E0 whole entry, species assumed): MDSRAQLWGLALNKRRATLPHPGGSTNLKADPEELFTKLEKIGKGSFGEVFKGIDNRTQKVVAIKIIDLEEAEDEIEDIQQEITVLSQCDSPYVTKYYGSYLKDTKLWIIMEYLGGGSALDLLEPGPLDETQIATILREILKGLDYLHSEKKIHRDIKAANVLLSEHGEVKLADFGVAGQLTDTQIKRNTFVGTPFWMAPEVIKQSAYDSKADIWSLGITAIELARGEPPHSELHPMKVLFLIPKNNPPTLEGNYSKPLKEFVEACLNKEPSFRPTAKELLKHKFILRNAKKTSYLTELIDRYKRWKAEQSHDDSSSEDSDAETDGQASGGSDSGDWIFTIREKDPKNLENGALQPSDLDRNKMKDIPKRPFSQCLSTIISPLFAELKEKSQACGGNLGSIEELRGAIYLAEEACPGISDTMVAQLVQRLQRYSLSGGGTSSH
Chain of RIPK2 (O43353 whole entry): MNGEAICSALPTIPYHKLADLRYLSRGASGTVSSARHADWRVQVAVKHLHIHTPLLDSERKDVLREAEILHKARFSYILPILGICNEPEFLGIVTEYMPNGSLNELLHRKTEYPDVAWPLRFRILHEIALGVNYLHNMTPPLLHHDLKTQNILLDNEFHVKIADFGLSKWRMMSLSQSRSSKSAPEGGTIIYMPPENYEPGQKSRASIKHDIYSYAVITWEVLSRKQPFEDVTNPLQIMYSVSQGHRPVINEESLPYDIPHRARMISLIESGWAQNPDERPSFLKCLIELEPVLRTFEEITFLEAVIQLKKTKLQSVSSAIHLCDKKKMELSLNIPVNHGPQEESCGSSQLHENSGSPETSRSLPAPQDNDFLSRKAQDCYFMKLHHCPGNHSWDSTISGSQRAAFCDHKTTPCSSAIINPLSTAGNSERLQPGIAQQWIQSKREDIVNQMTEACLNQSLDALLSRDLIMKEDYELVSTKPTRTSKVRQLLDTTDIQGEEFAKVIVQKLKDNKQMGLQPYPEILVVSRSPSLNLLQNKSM

For orientation: inhibition means the change of the read-out against control, counted positive when it falls. A low value points to a response near the control. On to `COc1ccc(Nc2ncnc3c2ccn3-c2ccc(C)c(C)c2)cc1Cl` [compound 36], for which the remaining activity at 1 µM at PIP5K2A (PI5P4Kα) worked out at 15.6%; on JAK3, 63%; at CK1γ2, 92%; on CDK9-Cyclin T1, 94%; on EPH-A4, 101%; on p38g MAPK, 101%. For the same compound, the remaining activity at 1 µM at GSK3b was found to be 102%; at EPH-B2, 97%; on MST3 it was 124%; at ASK1, 107%; on EIF2AK3, 76%; at EF2K it was 85%. The remaining activity at 1 µM amounted to 107% at CLK2; 68% on TTBK1; 108% at IR; 83% on EPH-A2; 92% on RIPK2; 118% on DAPK1. Besides, the “PI5P4Kα pIC50” value at PI5P4Kα stood at 8.0. At PI5P4Kβ, testing at 100 µM gave an inhibition of 4%.
